# Laboratory results taken from publication PMC4104029, “Mechanism of Action of Compound-13: An α1-Selective Small Molecule Activator of AMPK” (Chemistry & Biology, 2014).
# Tested on: AMP deaminase-1
# Assay: AMPD1 assay
# Format: biochemical, chicken
# Conditions: concentrations up to 100 μM; data not shown
# Excerpt: Supplemental Experimental Procedures:
# Materials. Compounds 2 and 13 were synthesised by PeakDale Molecular and Natalia Shpiro (MRC-PPU, Dundee), respectively, as described previously (Gomez-Galeno, et al., 2010).
# A769662 was from Selleck Chemicals and AICAR from Toronto Research Chemicals. Mouse FBP1, PYGM and PFK1 (muscle isoform) were cloned, expressed and purified from E.coli using standard techniques. AMPD was purified from chicken muscle (Smiley, et al., 1967).
# PP2Cα expressed in E.coli was from the Division of Signal Transduction Therapy (DSTT, Dundee). Peptides were synthesised by GL Biochem (Shanghai). [γ-32P]-ATP, [1-14C]-acetic acid and [9,10-3H(N)]-palmitic acid were from PerkinElmer. pS79 ACC1 (#3661), ACC1 […]
# antibodies were purchased from Cell Signaling Technology. Anti-AMPKα1 (07-350) and AMPKα2 (07-363) used for immunoblotting were from Merck-Millipore. Anti-AMPKγ1 was from Origene (clone Y308). Anti-AMPKγ2 was from Epitomics (S1562). Anti-tubulin (B-5-1-2), anti-FLAG (F7425) and anti-FLAG M2 agarose were from Sigma. Anti-HA (HA.11) was from Covance Research Products. AMPKα1/2 antibodies used for immunoprecipitation kinase assays were described previously (Sakamoto, et al., 2006). […]
# AMPK preparations. […] Isolated human AMPKα subunits were expressed as N-terminal GST-fusions in E.coli and activated as described for heterotrimeric complexes. […]
smiles,measurement,value
"O=P(O)(O)c1ccc(-c2cc(O)on2)o1 [Compound C2, 5-(5-hydroxyl-isoxazol-3-yl)-furan-2-phosphonic acid]",effect on enzyme activity,None of these enzymes were affected
